Measured values as given in the NIST ThermoML archive (doi:10.1021/je900978x).

Conditions: Fluid (supercritical or subcritical phases), Buoyancy - hydrostatic balance with magnetic suspension - one sinker

CC [ethane]
Conditions	mass density [kg/m3]
298.15 K, 2000 kPa	29.226
298.15 K, 5987 kPa	352.999
298.15 K, 7909 kPa	371.593
298.15 K, 10071 kPa	385.867
298.15 K, 14959 kPa	407.911
298.15 K, 20004 kPa	423.934
298.15 K, 24927 kPa	436.235
298.15 K, 29893 kPa	446.599
298.15 K, 35020 kPa	455.82
298.15 K, 39905 kPa	463.582
298.15 K, 49977 kPa	477.362
298.15 K, 75091 kPa	503.592
298.15 K, 99827 kPa	523.125
298.15 K, 119760 kPa	536.225
298.15 K, 149807 kPa	552.995
350 K, 1999 kPa	22.819
350 K, 29974 kPa	384.889
350 K, 49928 kPa	430.315
350 K, 74959 kPa	464.696
350 K, 100019 kPa	489.111
350 K, 124863 kPa	508.192
350 K, 149906 kPa	524.195
350 K, 172157 kPa	536.528
400 K, 805 kPa	7.452
400 K, 7325 kPa	84.481
400 K, 27286 kPa	311.921
400 K, 48575 kPa	383.533
400 K, 69346 kPa	421.214
400 K, 92289 kPa	450.02
400 K, 117459 kPa	473.901
400 K, 139686 kPa	491.026
400 K, 154657 kPa	501.119
400 K, 166558 kPa	508.474
400 K, 181565 kPa	517.111
400 K, 196062 kPa	524.823
450 K, 1998 kPa	16.685
450 K, 5021 kPa	44.467
450 K, 10001 kPa	96.599
450 K, 20005 kPa	202.282
450 K, 30018 kPa	272.417
450 K, 49974 kPa	346.238
450 K, 69967 kPa	388.105
450 K, 79928 kPa	403.693
450 K, 99962 kPa	429.113
450 K, 119860 kPa	449.29
450 K, 139478 kPa	465.963
